This series deals with CCRIS mutagenicity, Ames/micronucleus/aberration tests. Kind of series: CCRIS mutagenicity studies.
Where [1] appears, read: Test System: AMES SALMONELLA TYPHIMURIUM, Strain/Indicator: TA98, Metabolic Activation: NONE, Method: STANDARD PLATE.
Setting [2] is: Test System: AMES SALMONELLA TYPHIMURIUM, Strain/Indicator: TA98, Metabolic Activation: RAT, LIVER, S-9, AROCLOR 1254, Method: STANDARD PLATE.
The mark [3] stands for this setting: Test System: AMES SALMONELLA TYPHIMURIUM, Strain/Indicator: TA100, Metabolic Activation: NONE, Method: PREINCUBATION
The mark [4] stands for this setting: Test System: AMES SALMONELLA TYPHIMURIUM, Strain/Indicator: TA100, Metabolic Activation: NONE, Method: STANDARD PLATE.
Setting [5] is: Test System: AMES SALMONELLA TYPHIMURIUM, Strain/Indicator: TA100, Metabolic Activation: RAT, LIVER, S-9, AROCLOR 1254, Method: STANDARD PLATE.
Setting [6] is: Test System: AMES SALMONELLA TYPHIMURIUM, Strain/Indicator: TA1537, Metabolic Activation: NONE, Method: STANDARD PLATE.
Setting [7] is: Test System: AMES SALMONELLA TYPHIMURIUM, Strain/Indicator: TA1537, Metabolic Activation: RAT, LIVER, S-9, AROCLOR 1254, Method: STANDARD PLATE.
Setting [8] is: Test System: AMES SALMONELLA TYPHIMURIUM, Strain/Indicator: TA98, Metabolic Activation: NONE, Method: PREINCUBATION

Molecules are shown by their SMILES. Active and inactive are the calls of the source. The rule behind the calls is not given here.

`Nc1ccc(/C=C/C(=O)O)cc1`: the mutagenic call was “inactive; negative” under setting [1]; “inactive; negative” under setting [2]; “inactive; negative” under setting [3]; “inactive; negative” under setting [4]; “inactive; negative” (Test System: AMES SALMONELLA TYPHIMURIUM, Strain/Indicator: TA100, Metabolic Activation: RAT, LIVER, S-9, AROCLOR 1254, Method: PREINCUBATION); “inactive; negative” under setting [5].

Turning to `CN(CC(=O)NN)c1ccc2ccccc2c1`, the mutagenic call by setting is: under setting [1], “inactive; negative”; under setting [2], “inactive; negative”; under setting [4], “inactive; negative”; under setting [5], “inactive; negative”; under setting [6], “inactive; negative”; under setting [7], “inactive; negative”.

As for `O=[N+]([O-])c1cc2c(cc1Cl)Oc1cc(Cl)c(Cl)cc1O2`, the mutagenic call was “active; positive” under setting [1]; “active; positive” (Test System: AMES SALMONELLA TYPHIMURIUM, Strain/Indicator: TA98, Metabolic Activation: RAT, LIVER, S-9, AROCLOR, Method: STANDARD PLATE); “active; positive” under setting [4]; “active; positive” (Test System: AMES SALMONELLA TYPHIMURIUM, Strain/Indicator: TA100, Metabolic Activation: RAT, LIVER, S-9, AROCLOR, Method: STANDARD PLATE).

In the case of `Cc1ccc(Nc2ccc([N+](=O)[O-])cc2)cc1`, the mutagenic call (Test System: AMES SALMONELLA TYPHIMURIUM, Strain/Indicator: TA98(NR), Metabolic Activation: NONE, Method: PREINCUBATION) is “inactive; negative”; the mutagenic call under setting [8] is “active; positive”; the mutagenic call (Test System: AMES SALMONELLA TYPHIMURIUM, Strain/Indicator: TA98, Metabolic Activation: RAT, LIVER, S-9, AROCLOR 1254, Method: PREINCUBATION) is “active; positive”.

As for `S=C=Nc1cccc2ccccc12`, the mutagenic call (Test System: AMES SALMONELLA TYPHIMURIUM, Strain/Indicator: TA97, Metabolic Activation: HAMSTER, LIVER, S-9, AROCLOR 1254 (30%), Method: PREINCUBATION) was “active; positive”; the mutagenic call (Test System: AMES SALMONELLA TYPHIMURIUM, Strain/Indicator: TA97, Metabolic Activation: NONE, Method: PREINCUBATION) was “inactive; negative”; the mutagenic call (Test System: AMES SALMONELLA TYPHIMURIUM, Strain/Indicator: TA97, Metabolic Activation: RAT, LIVER, S-9, AROCLOR 1254 (10 OR 30%), Method: PREINCUBATION) was “inactive; negative”; the mutagenic call (Test System: AMES SALMONELLA TYPHIMURIUM, Strain/Indicator: TA98, Metabolic Activation: HAMSTER, LIVER, S-9, AROCLOR 1254 (30%), Method: PREINCUBATION) was “inactive; negative”; the mutagenic call under setting [8] is “inactive; negative”; the mutagenic call (Test System: AMES SALMONELLA TYPHIMURIUM, Strain/Indicator: TA98, Metabolic Activation: RAT, LIVER, S-9, AROCLOR 1254 (1O OR 30%), Method: PREINCUBATION) was “inactive; negative”. Besides, the mutagenic call (Test System: AMES SALMONELLA TYPHIMURIUM, Strain/Indicator: TA100, Metabolic Activation: HAMSTER, LIVER, S-9, AROCLOR 1254 (10%), Method: PREINCUBATION) is “inactive; negative”; the mutagenic call (Test System: AMES SALMONELLA TYPHIMURIUM, Strain/Indicator: TA100, Metabolic Activation: HAMSTER, LIVER, S-9, AROCLOR 1254 (30%), Method: PREINCUBATION) is “active; positive”; the mutagenic call under setting [3] was “inactive; negative”; the mutagenic call (Test System: AMES SALMONELLA TYPHIMURIUM, Strain/Indicator: TA100, Metabolic Activation: RAT, LIVER, S-9, AROCLOR 1254 (10%), Method: PREINCUBATION) is “inactive; negative”; the mutagenic call (Test System: AMES SALMONELLA TYPHIMURIUM, Strain/Indicator: TA100, Metabolic Activation: RAT, LIVER, S-9, AROCLOR 1254 (30%), Method: PREINCUBATION) is “inactive; negative”; the mutagenic call (Test System: AMES SALMONELLA TYPHIMURIUM, Strain/Indicator: TA1535, Metabolic Activation: HAMSTER, LIVER, S-9, AROCLOR 1254 (10 OR 30%), Method: PREINCUBATION) was “inactive; negative”. Besides, the mutagenic call (Test System: AMES SALMONELLA TYPHIMURIUM, Strain/Indicator: TA1535, Metabolic Activation: NONE, Method: PREINCUBATION) is “inactive; negative”; the mutagenic call (Test System: AMES SALMONELLA TYPHIMURIUM, Strain/Indicator: TA1535, Metabolic Activation: RAT, LIVER, S-9, AROCLOR 1254 (10 OR 30%), Method: PREINCUBATION) was “inactive; negative”; the mutagenic call (Test System: AMES SALMONELLA TYPHIMURIUM, Strain/Indicator: TA1537, Metabolic Activation: HAMSTER, LIVER, S-9, AROCLOR 1254 (30%), Method: PREINCUBATION) was “inactive; negative”; the mutagenic call (Test System: E. COLI, Strain/Indicator: WP2 UVRA, Metabolic Activation: HAMSTER, LIVER, S-9, AROCLOR 1254, Method: STANDARD PLATE) is “inactive; negative”; the mutagenic call (Test System: E. COLI, Strain/Indicator: WP2 UVRA, Metabolic Activation: HAMSTER, LIVER, S-9, Method: STANDARD PLATE) is “inactive; negative”; the mutagenic call (Test System: E. COLI, Strain/Indicator: WP2 UVRA, Metabolic Activation: MOUSE, LIVER, S-9, AROCLOR 1254, Method: STANDARD PLATE) was “inactive; negative”. Also, the mutagenic call runs as follows: (Test System: E. COLI, Strain/Indicator: WP2 UVRA, Metabolic Activation: MOUSE, LIVER, S-9, Method: STANDARD PLATE) “inactive; negative”; (Test System: E. COLI, Strain/Indicator: WP2 UVRA, Metabolic Activation: NONE, Method: STANDARD PLATE) “inactive; negative”; (Test System: E. COLI, Strain/Indicator: WP2 UVRA, Metabolic Activation: RAT, LIVER, S-9, AROCLOR 1254, Method: STANDARD PLATE) “inactive; negative”; (Test System: E. COLI, Strain/Indicator: WP2 UVRA, Metabolic Activation: RAT, LIVER, S-9, Method: STANDARD PLATE) “inactive; negative”.

Consider `O=C1c2cc(S(=O)(=O)O)ccc2C(=O)c2c1cccc2[N+](=O)[O-]`, for which the mutagenic call is “active; positive” under setting [1]; “active; positive” under setting [2]; “inactive; negative” under setting [5]; “inactive; negative” (Test System: AMES SALMONELLA TYPHIMURIUM, Strain/Indicator: TA1535, Metabolic Activation: NONE, Method: STANDARD PLATE); “inactive; negative” (Test System: AMES SALMONELLA TYPHIMURIUM, Strain/Indicator: TA1535, Metabolic Activation: RAT, LIVER, S-9, AROCLOR 1254, Method: STANDARD PLATE); “active; positive” under setting [6]. The mutagenic call is, setting by setting: under setting [7], “active; positive”; (Test System: AMES SALMONELLA TYPHIMURIUM, Strain/Indicator: TA1538, Metabolic Activation: NONE, Method: STANDARD PLATE) “active; positive”; (Test System: AMES SALMONELLA TYPHIMURIUM, Strain/Indicator: TA1538, Metabolic Activation: RAT, LIVER, S-9, AROCLOR 1254, Method: STANDARD PLATE) “active; positive”.
